The values below come from ChEMBL document CHEMBL1201862, “PubChem BioAssay data set” (2004).

SMILES strings stand for the structures. Active and inactive are the calls of the source. A value given as a limit tells only on which side of the number the result lay.

Experiment [1] has as its target T1, Apoptotic protease-activating factor 1 (Homo sapiens, UniProt O14727).
T1 sequence (O14727 whole entry): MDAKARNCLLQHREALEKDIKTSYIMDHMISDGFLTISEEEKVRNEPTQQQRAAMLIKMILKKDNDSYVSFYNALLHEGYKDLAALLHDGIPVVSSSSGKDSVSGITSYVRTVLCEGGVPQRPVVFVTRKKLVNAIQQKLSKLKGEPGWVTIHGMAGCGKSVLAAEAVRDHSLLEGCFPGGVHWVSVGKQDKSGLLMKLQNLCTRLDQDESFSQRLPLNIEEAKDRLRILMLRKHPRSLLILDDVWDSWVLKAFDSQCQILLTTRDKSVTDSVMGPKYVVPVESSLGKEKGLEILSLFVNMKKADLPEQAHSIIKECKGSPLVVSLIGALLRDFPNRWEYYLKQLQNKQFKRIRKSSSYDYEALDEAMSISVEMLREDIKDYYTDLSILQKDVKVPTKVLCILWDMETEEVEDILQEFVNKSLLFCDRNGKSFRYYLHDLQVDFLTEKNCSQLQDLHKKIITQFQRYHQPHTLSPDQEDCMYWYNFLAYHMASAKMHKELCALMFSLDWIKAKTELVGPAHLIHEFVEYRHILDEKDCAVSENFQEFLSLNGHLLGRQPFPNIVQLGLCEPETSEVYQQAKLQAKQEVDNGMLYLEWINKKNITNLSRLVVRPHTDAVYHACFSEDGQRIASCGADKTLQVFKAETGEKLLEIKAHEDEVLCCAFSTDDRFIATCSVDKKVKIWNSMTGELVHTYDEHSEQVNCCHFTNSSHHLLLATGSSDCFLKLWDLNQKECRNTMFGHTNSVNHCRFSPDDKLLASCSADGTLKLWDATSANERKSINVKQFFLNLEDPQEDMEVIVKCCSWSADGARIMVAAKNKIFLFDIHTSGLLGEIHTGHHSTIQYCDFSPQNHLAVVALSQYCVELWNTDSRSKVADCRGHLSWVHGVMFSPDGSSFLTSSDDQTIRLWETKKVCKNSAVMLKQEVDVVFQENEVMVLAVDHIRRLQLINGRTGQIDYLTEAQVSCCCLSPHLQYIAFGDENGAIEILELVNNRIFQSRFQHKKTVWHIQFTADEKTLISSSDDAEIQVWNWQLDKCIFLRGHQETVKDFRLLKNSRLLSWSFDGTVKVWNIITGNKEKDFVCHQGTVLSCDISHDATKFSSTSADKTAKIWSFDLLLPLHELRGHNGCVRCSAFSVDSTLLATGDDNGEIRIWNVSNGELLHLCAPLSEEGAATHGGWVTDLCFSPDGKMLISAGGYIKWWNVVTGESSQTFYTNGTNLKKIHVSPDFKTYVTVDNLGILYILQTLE
The format is functional.

Experiment [2] in a line: viability of HCT116 lacking mutant beta-catenin – cell-based, human colon tumor, dose response (AID 1045).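 Note: HCT116 colon tumor cells with beta catenin knocked out; cells exposed to compound for 60 hours.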 The format is functional.
Experiment [3] has as its target T2, Histone-lysine N-methyltransferase NSD2 (Homo sapiens, UniProt O96028).
T2 sequence (O96028 whole entry): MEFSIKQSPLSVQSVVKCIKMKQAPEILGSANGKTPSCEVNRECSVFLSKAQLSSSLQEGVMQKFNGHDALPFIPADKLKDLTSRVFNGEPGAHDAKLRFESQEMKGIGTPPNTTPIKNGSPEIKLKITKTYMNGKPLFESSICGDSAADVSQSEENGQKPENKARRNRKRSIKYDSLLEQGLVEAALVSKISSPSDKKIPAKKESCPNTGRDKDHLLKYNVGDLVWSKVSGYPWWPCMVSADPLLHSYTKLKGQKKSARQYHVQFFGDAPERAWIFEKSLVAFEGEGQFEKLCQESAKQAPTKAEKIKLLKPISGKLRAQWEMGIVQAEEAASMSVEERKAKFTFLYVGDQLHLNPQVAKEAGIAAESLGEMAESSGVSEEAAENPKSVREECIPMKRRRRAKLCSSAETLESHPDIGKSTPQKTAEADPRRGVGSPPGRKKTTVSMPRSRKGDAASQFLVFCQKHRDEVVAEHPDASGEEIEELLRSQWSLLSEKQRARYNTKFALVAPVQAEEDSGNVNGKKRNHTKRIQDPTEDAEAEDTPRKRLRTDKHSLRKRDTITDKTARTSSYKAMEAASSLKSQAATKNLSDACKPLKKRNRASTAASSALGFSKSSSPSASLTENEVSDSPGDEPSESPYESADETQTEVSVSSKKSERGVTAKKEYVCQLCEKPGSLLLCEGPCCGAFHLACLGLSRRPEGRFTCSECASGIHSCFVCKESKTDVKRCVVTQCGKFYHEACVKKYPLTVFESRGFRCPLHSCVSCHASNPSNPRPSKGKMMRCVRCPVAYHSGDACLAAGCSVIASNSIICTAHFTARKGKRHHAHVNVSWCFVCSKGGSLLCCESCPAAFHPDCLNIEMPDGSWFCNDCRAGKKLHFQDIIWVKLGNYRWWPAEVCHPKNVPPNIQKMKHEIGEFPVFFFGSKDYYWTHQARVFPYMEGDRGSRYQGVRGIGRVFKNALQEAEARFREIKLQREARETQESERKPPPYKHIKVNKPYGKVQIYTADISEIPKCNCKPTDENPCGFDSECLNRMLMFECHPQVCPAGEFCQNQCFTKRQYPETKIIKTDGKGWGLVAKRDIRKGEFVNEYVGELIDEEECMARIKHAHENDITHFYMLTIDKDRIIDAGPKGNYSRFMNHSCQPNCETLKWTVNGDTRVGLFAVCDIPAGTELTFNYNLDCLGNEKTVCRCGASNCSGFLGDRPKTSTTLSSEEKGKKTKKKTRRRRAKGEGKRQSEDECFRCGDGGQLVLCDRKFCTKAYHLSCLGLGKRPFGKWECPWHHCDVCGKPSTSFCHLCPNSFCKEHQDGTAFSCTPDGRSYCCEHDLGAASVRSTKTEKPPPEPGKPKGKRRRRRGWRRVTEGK
In kind it is biochemical.

Consider `O=C1c2cc(F)ccc2-n2c1nc1ccccc1c2=O`, for which the half-maximal inhibitory concentration (IC50) in experiment [1] is 3.8 µM (active). For the molecule `CCOC(=O)C1=C(c2ccc(OC)cc2)C(=O)c2ccccc2C1=O`, the EC50 in experiment [2] was 2.33 µM (active). For the molecule `COCCCNC(=O)c1ccc2c3c(onc13)-c1ccccc1C2=O`, the IC50 in experiment [1] was 15.7 µM (active). Also, the AC50 in experiment [3] was > 20 µM (inactive). For `O=C1C=C(N(CCO)Cc2ccccc2)c2ccccc2C1=O`, the AC50 in experiment [3] is 1.2 µM (active).

Consider `CCC(=O)OCCNc1cc(Sc2nccn2C)c2nonc2c1[N+](=O)[O-]`, for which the concentration giving a half-maximal response (EC50) in experiment [2] was 3.98 µM (active). On to `CCCCn1c(NC(=O)c2ccccc2Cl)c(C#N)c2nc3ccccc3nc21`, for which the IC50 in experiment [1] is 13.7 µM (active). Further, the AC50 in experiment [3] is 2.68 µM (active). For `CCc1ccc(OCC(=O)N/N=C2\CC(=O)c3ccccc32)cc1`, the 50% inhibitory concentration (IC50) in experiment [1] is 18.5 µM (active). Also, in experiment [2], the concentration giving a half-maximal response (EC50) is 11.6 µM (active). `O=C1C(=O)c2ccccc2-c2ccccc21` [9,10-PHENANTHRENEQUINONE]: in experiment [1], the IC50 is 0.549 µM (active).
